Laboratory results published in the OPERA property sets (Mansouri et al. 2018).

Compound	logP
CC(O)CC(F)(F)F (stereo not given)	0.71
OCCCC(F)(F)F	0.9
CC(CO)CC(F)(F)F (stereo not given)	1.39
OCCCCC(F)(F)F	1.15
CCC(O)CCC(F)(F)F (stereo not given)	1.7
CC(CCO)CC(F)(F)F (stereo not given)	1.61
OCCC(F)(F)F	0.39
CC(CCO)C(F)(F)F (stereo not given)	1.37
CC(C)(O)C(F)(F)F	1.04
OCCCCCC(F)(F)F	1.64
